Columns and labels:
SMMC-7721 [1] = experiment: Cytotoxicity against human SMMC-7721 cells assessed as inhibition of cell growth incubated for 48 hrs by MTT assay; assay type: functional, cell-based; settings: SMMC-7721, 48 h
HepG2 = experiment: Cytotoxicity against human HepG2 cells assessed as inhibition of cell growth incubated for 48 hrs by MTT assay; assay type: functional, cell-based; settings: HepG2, 48 h
K562 = experiment: Cytotoxicity against human K562 cells assessed as inhibition of cell growth incubated for 48 hrs by MTT assay; assay type: functional, cell-based; settings: K562, 48 h
HCT-116 [2] = experiment: Cytotoxicity against human HCT-116 cells assessed as inhibition of cell growth incubated for 48 hrs by MTT assay; assay type: functional, cell-based; settings: HCT-116, 48 h
HCT-116 [3] = experiment: Cytotoxicity against human HCT-116 cells assessed as inhibition of cell growth incubated for 72 hrs by MTT assay; assay type: functional, cell-based; settings: HCT-116, 72 h
Salmon testes DNA = experiment: Binding affinity to salmon Testis DNA assessed as equilibrium binding constant by steady-state fluorescence spectroscopic analysis; settings: Salmo salar
Bacillus subtilis = experiment: Antibacterial activity against Bacillus subtilis ATCC6633 assessed as inhibition of bacterial growth incubated for 24 hrs by two-fold serial dilution assay; assay type: functional
Staphylococcus aureus [4] = experiment: Antibacterial activity against methicillin-resistant Staphylococcus aureus N315 assessed as inhibition of bacterial growth incubated for 24 hrs by two-fold serial dilution assay; assay type: functional
Micrococcus luteus = experiment: Antibacterial activity against Micrococcus luteus assessed as inhibition of bacterial growth incubated for 24 hrs by two-fold serial dilution assay; assay type: functional
Staphylococcus aureus [5] = experiment: Antibacterial activity against Staphylococcus aureus ATCC25923 assessed as inhibition of bacterial growth incubated for 24 hrs by two-fold serial dilution assay; assay type: functional
Pseudomonas aeruginosa = experiment: Antibacterial activity against Pseudomonas aeruginosa assessed as inhibition of bacterial growth incubated for 24 hrs by two-fold serial dilution assay; assay type: functional
Escherichia coli = experiment: Antibacterial activity against Escherichia coli JM109 assessed as inhibition of bacterial growth incubated for 24 hrs by two-fold serial dilution assay; assay type: functional
Proteus = experiment: Antibacterial activity against Proteus ATCC13315 assessed as inhibition of bacterial growth incubated for 24 hrs by two-fold serial dilution assay; assay type: functional
Salmonella typhi = experiment: Antibacterial activity against Salmonella enterica subsp. enterica serovar Typhi assessed as inhibition of bacterial growth incubated for 24 hrs by two-fold serial dilution assay; assay type: functional
HCT-15 = experiment: Cytotoxicity against human HCT-15 cells assessed as inhibition of cell growth incubated for 24 hrs by sulforhodamine B assay; assay type: functional, cell-based; settings: HCT-15, 24 h
L02 = experiment: Antiproliferative activity against human HL7702 cells assessed as inhibition of cell proliferation incubated for 24 hrs by MTT assay; assay type: functional, cell-based; settings: L02, 24 h
MCF7 [6] = experiment: Antiproliferative activity against human MCF7 cells assessed as inhibition of cell proliferation incubated for 24 hrs by MTT assay; assay type: functional, cell-based; settings: MCF7, 24 h
BGC-823 = experiment: Antiproliferative activity against human BGC-823 cells assessed as inhibition of cell proliferation incubated for 24 hrs by MTT assay; assay type: functional, cell-based; settings: BGC-823, 24 h
Jurkat = experiment: Antiproliferative activity against human Jurkat cells assessed as inhibition of cell proliferation incubated for 72 hrs by MTT assay; assay type: functional, cell-based
HeLa [7] = experiment: Cytotoxicity against human HeLa cells assessed as inhibition of cell growth by MTT assay; assay type: functional, cell-based
Calf thymus DNA [8] = experiment: Binding affinity to calf thymus DNA assessed as DNA intercalation by measuring change in melting temperature by thermal denaturation assay; assay type: nucleic-acid assay; settings: Bos taurus
Clupea harengus = experiment: Binding affinity to Atlantic herring DNA assessed as binding constant by fluorescence based EtBr-UV absorption spectral analysis
Calf thymus DNA [9] = experiment: Binding affinity to calf thymus DNA assessed as binding constant by fluorescence based EtBr-displacement based UV-Vis spectroscopic analysis; assay type: nucleic-acid assay; settings: Bos taurus
HeLa [10] = experiment: Antiproliferative activity against human HeLa cells assessed as inhibition of cell proliferation incubated for 48 hrs by MTT assay; assay type: functional, cell-based
SMMC-7721 [11] = experiment: Antiproliferative activity against human SMMC-7721 cells assessed as inhibition of cell proliferation incubated for 48 hrs by MTT assay; assay type: functional, cell-based; settings: SMMC-7721, 48 h
MCF7 [12] = experiment: Antiproliferative activity against human MCF7 cells assessed as inhibition of cell proliferation incubated for 48 hrs by MTT assay; assay type: functional, cell-based; settings: MCF7, 48 h

## CCCCOC(=O)c1ccc2c3c(cccc13)C(=O)N(CCN(C)C)C2=O
SMMC-7721 [1]
  IC50: > 50000 nM
HepG2
  IC50: > 50000 nM
K562
  IC50: > 50000 nM
HCT-116 [2]
  IC50: > 50000 nM

## O=C1c2cccc3cccc(c23)C(=O)N1CCCNCCN(CCO)CCO
HCT-116 [3]
  IC50: > 40000 nM

## CN(C)c1ccc2c3c(cccc13)C(=O)N(CCc1cc[n+](C)cc1)C2=O
Salmon testes DNA
  Kb: 1.38 10^5/M

## O=C1c2cccc3c(Sc4nc5ccccc5n4Cc4cccc(Cl)c4)ccc(c23)C(=O)N1CCCCn1cncn1
Bacillus subtilis
  MIC: > 512 µg/mL
Staphylococcus aureus [4]
  MIC: > 512 µg/mL
Micrococcus luteus
  MIC: > 512 µg/mL
Staphylococcus aureus [5]
  MIC: > 512 µg/mL
Pseudomonas aeruginosa
  MIC: > 512 µg/mL
Escherichia coli
  MIC: > 512 µg/mL
Proteus
  MIC: > 512 µg/mL
Salmonella typhi
  MIC: > 512 µg/mL

## O=C1c2cccc3cccc(c23)C(=O)N1CCCCn1cc(-c2ccccc2)nn1
HCT-15
  IC50: 2440 nM

## O=C1c2cccc3c2c(cc2[nH]c(-c4c[nH]c5ccccc45)nc23)C(=O)N1NCc1ccccc1
L02
  IC50: 700 nM
MCF7 [6]
  IC50: 700 nM
BGC-823
  IC50: 700 nM

## NCCN1C(=O)c2cccc3cccc(c23)C1=O
HCT-15
  IC50: 2440 nM

## NCCCN1C(=O)c2cccc3cccc(c23)C1=O [NAPHTHALIMIDOPROPYLAMINE]
HCT-15
  IC50: 2440 nM

## O=C1c2cccc3c(Sc4nc5ccccc5n4Cc4cccc(F)c4)ccc(c23)C(=O)N1CCCCn1cncn1
Bacillus subtilis
  MIC: > 512 µg/mL
Staphylococcus aureus [4]
  MIC: > 512 µg/mL
Micrococcus luteus
  MIC: > 512 µg/mL
Staphylococcus aureus [5]
  MIC: > 512 µg/mL
Pseudomonas aeruginosa
  MIC: > 512 µg/mL
Escherichia coli
  MIC: > 512 µg/mL
Proteus
  MIC: > 512 µg/mL
Salmonella typhi
  MIC: > 512 µg/mL

## O=C1c2cccc3cccc(c23)C(=O)N1CCCCNCc1ccccn1
Jurkat
  IC50: 5580 nM

## CN(C)CCN1C(=O)c2cccc3c2c(cc2nccnc23)C1=O
HeLa [7]
  IC50: 1900 nM
Calf thymus DNA [8]
  ΔTm: 3.9 °C

## O=C1c2cccc3cccc(c23)C(=O)N1CCNCc1ccccn1
Jurkat
  IC50: 5580 nM

## CCCCCOC(=O)c1ccc2c3c(cccc13)C(=O)N(CCN(C)C)C2=O
SMMC-7721 [1]
  IC50: > 50000 nM
HepG2
  IC50: > 50000 nM
K562
  IC50: > 50000 nM
HCT-116 [2]
  IC50: > 50000 nM

## O=C1c2cccc3cccc(c23)C(=O)N1CCCNCCCN(CCO)CCO
HCT-116 [3]
  IC50: 6960 nM

## NCCCCNCCCCN1C(=O)c2cccc3cccc(c23)C1=O
Clupea harengus
  Kb: 1.15 10^4/M

## O=C1c2cccc3cccc(c23)C(=O)N1CCn1cc(-c2ccccc2)nn1
HCT-15
  IC50: 2440 nM

## CN(C)CCN1C(=O)c2cccc3c2c(cc2nc(C(F)(F)F)c(C(F)(F)F)nc23)C1=O
HeLa [7]
  IC50: 3800 nM

## O=C1c2cccc3c([N+](=O)[O-])ccc(c23)C(=O)N1c1ccc(-c2cc[n+]3c(c2)-c2cccc[n+]2CC3)cc1
Calf thymus DNA [9]
  K: 1.7 10^7/M

## CN(C)CCNCCCN1C(=O)c2cccc3cccc(c23)C1=O
Clupea harengus
  Kb: 1.15 10^4/M

## CCCOC(=O)c1ccc2c3c(cccc13)C(=O)N(CCN(C)C)C2=O
SMMC-7721 [1]
  IC50: > 50000 nM
HepG2
  IC50: > 50000 nM
K562
  IC50: > 50000 nM
HCT-116 [2]
  IC50: > 50000 nM

## O=C1c2cccc3cccc(c23)C(=O)N1CCCN(CCCN(CCCl)CCCl)CCCN1C(=O)c2cccc3cccc(c23)C1=O
HCT-116 [3]
  IC50: 350 nM

## O=C1c2cccc3cccc(c23)C(=O)N1CCCn1cc(-c2ccccc2)nn1
HCT-15
  IC50: 2440 nM

## O=C1c2cccc3cccc(c23)C(=O)N1CCCN(CCCN1C(=O)c2cccc3cccc(c23)C1=O)CCN(CCO)CCO
HCT-116 [3]
  IC50: > 15000 nM

## O=C1c2cccc3cc(-n4ccnn4)cc(c23)C(=O)N1CCN1CCNCC1
HeLa [10]
  IC50: 300 nM
SMMC-7721 [11]
  IC50: 300 nM
MCF7 [12]
  IC50: 300 nM

## O=C1c2cccc3c(Sc4nc5ccccc5n4Cc4ccc(Cl)cc4Cl)ccc(c23)C(=O)N1CCCCn1c[n+](Cc2ccccc2Cl)cn1
Bacillus subtilis
  MIC: 2 µg/mL
Staphylococcus aureus [4]
  MIC: 2 µg/mL
Micrococcus luteus
  MIC: 2 µg/mL
Staphylococcus aureus [5]
  MIC: 2 µg/mL
Pseudomonas aeruginosa
  MIC: 2 µg/mL
Escherichia coli
  MIC: 2 µg/mL
Proteus
  MIC: 2 µg/mL
Salmonella typhi
  MIC: 2 µg/mL

## O=C1c2cccc3cccc(c23)C(=O)N1CCCNCCCN(CCCl)CCCl
HCT-116 [3]
  IC50: 1400 nM

## CCCCCCCCNN1C(=O)c2cccc3c2c(cc2[nH]c(-c4c[nH]c5ccccc45)nc23)C1=O
L02
  IC50: 700 nM
MCF7 [6]
  IC50: 700 nM
BGC-823
  IC50: 700 nM

## NCCCCN1C(=O)c2cccc3cccc(c23)C1=O
HCT-15
  IC50: 2440 nM

From ChEMBL document CHEMBL5244223, “l,8-Naphthalimide based DNA intercalators and anticancer agents. A systematic review from 2007 to 2017” (Eur J Med Chem, 2018)
